One assay addresses T1, thromboxane receptor (Homo sapiens, UniProt P21731).
T1 construct: human, citrated, platelet-rich plasma; endogenous in cells; host or cells: human platelets in citrated platelet-rich plasma
T1 sequence (P21731 1-343): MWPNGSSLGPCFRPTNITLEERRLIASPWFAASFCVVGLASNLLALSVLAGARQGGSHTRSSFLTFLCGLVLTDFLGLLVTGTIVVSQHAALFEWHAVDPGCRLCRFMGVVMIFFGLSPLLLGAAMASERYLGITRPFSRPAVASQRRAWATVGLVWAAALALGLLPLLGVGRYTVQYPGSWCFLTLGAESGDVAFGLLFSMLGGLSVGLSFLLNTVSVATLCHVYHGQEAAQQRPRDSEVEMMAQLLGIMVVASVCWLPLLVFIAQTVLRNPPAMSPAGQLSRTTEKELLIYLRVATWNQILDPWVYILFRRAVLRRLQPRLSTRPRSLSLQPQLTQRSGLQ
As to the kind of experiment: test (b): blood platelet aggregation test, U46619-stimulated aggregation of human citrated platelet-rich plasma. The following applies: averaged over several concentrations. The format is cell-based. From the text:
(b) a blood platelet aggregation test based on that described by Born (Nature, 1962, 194, 927-929) and involving:
(i) aggregating human, citrated, platelet-rich plasma by addition of the TXA2 mimetic agent U46619 so that a dose-response curve is generated;
(ii) generating a dose-response curve for U46619 stimulated platlet aggregation in the presence of increasing amounts of test compound (generally in the range 10^-5 M to 10^-10 M); and
(iii) calculating a KB value indicating potency of TXA2 antagonism for the test compound, averaged over several concentrations, from the calculated 50% response value for U46619 aggregation in the presence and absence of test compound; or […]

The next assay deals with T2, TXA2 synthase (Homo sapiens, UniProt P24557).
T2 construct: human platelet microsomal TXA2 synthase preparation; from tissue; host or cells: human platelet microsomes
T2 sequence (P24557 1-533): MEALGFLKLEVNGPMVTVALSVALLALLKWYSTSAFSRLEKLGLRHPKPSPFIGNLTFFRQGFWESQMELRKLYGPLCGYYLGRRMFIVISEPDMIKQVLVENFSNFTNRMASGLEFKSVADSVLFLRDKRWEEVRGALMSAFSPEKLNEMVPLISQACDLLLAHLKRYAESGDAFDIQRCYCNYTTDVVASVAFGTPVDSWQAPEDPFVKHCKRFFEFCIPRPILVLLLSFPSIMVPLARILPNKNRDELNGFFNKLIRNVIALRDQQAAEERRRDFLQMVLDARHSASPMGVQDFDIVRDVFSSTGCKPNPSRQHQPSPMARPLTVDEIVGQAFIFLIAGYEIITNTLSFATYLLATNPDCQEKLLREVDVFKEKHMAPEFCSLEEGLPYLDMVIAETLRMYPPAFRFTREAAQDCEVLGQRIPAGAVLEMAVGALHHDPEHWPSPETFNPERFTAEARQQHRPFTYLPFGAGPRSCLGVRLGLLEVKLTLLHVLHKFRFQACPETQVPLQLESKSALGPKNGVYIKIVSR
As to the kind of experiment: test (e): human platelet microsomal TXA2 synthase inhibition (conversion of arachidonic acid to TXB2). Format: biochemical.

One may read the pIC50 as the negative decadic logarithm of the IC50, by convention in mol/L. High values mean a low IC50, low ones a high IC50.

Structures are written as SMILES. pIC50: −log10 of the molar value.

`COc1ccc(OC(C)(C)[C@H]2OC[C@@H](C/C=C\CCC(=O)O)[C@@H](c3cccnc3)O2)cc1` (relative stereo) [Example 1, 4(Z)-6[(2,4,5-cis)-2-(1-(4-methoxyphenoxy)-1-methylethyl)-4-(3-pyridyl)-1,3-dioxan-5-yl]-hexenoic acid] gave a Kb on thromboxane receptor of 300 nM. In addition, on TXA2 synthase, the pIC50 is 7.40.

(Values after patent US5053415A, “Pyridine derivatives” (Imperial Chemical Industries PLC, priority 1988, dated 1991).)
